The values below come from patent US8834549B2, “One-step phosphorylcholine-linked polymer coating and drug loading of stent” (Abbott Laboratories, priority 2007, dated 2014).

The series can be described thus: Total drug level on stents after ETO cycles by extraction and HPLC. Type of series: physicochemical. Conditions: 5 stents with 1 ETO cycle, 5 stents with 3 ETO cycles. On the procedure:
Weighed 129 mg of ABT-578, a rapamycin derivative and 280 mg of phosphorylcholine-linked methacrylate terpolymer PC1036 and dissolved them in 10 ml of […] by shaking overnight protected from light. The solution was filtered through a 0.45 micron Teflon filter and the solution was added to the syringe reservoir of a semi-automated spray atomization gun coupled to a lathe-like device designed to hold stents, rotate them and translate them linearly in front of the spray gun. The equipment was programmed to spray enough solution in order to obtain about 10 micrograms of drug per linear mm of stent length, taking into account the losses of solution due to lack of contact with the stent as it is sprayed. After spraying, the stents were allowed to dry in air, followed by packaging them individually in glass vials sealed with an ETO permeable Tyvec membrane. The samples were sent out for ETO sterilization by one or three complete cycles.
Analysis was done of the total drug level from 5 stents that underwent 1 ETO cycle and 5 stents that underwent 3 ETO cycles using standard extraction and HPLC analysis.

In the case of `CO[C@H]1C[C@@H]2CC[C@@H](C)[C@@](O)(O2)C(=O)C(=O)N2CCCC[C@H]2C(=O)O[C@H]([C@H](C)C[C@@H]2CC[C@H](n3cnnn3)[C@H](OC)C2)CC(=O)[C@H](C)/C=C(\C)[C@@H](O)[C@@H](OC)C(=O)[C@H](C)C[C@H](C)/C=C/C=C/C=C/1C` [ABT-578], the “stability of drug on stent to ETO cycles (total drug level, 3 cycles vs 1 cycle)” value is on record as “stable to 3 ETO cycles”.
